According to US20160250253A1, “STRONTIUM-CONTAINING COMPLEXES FOR TREATING GASTROESOPHAGEAL REFLUX AND BARRETT'S ESOPHAGUS” (priority 2013, published 2016):

Experiments:
ulcer = details: cited from earlier work
Helicobacter pylori = details: cited from earlier work
acid-induced pain = assay: Double blind study of glycolic acid induced pain on the forearm; type: in vivo, human; details: 25% glycolic acid with or without 250 millimolar gallic acid, topical on forearm, pain rated 0-4 every minute for 10 minutes
Protocol: Briefly, in a double blind study, 25% glycolic acid solutions with or without 250 millimolar of gallic acid were applied to an 2×8 inch area of the forearm of the study participants. The pain level was assessed at time of application and every minute thereafter for 10 minutes. Study participants rated the pain levels on a 0-4 scale where 0 was no pain; 1 was slight pain; 2 was mild pain; 3 was moderate pain; and 4 was unbearable pain.

KCa 3.1 = KCa 3.1 (Homo sapiens, UniProt O15554); details: cited from earlier work
cancer cell lines = details: series of cancer cell lines; cited from earlier work
[1] = system: esophageal cancer cells (TE-2); details: cited from earlier work
pain of sore throat = assay: Sore throat pain after gargling; type: in vivo; details: within several minutes after gargling, clinical observations
Text: Since acidic material from the stomach is what causes the burning pain and inflammation in GER, it is hypothesized that strontium would be effective in treating GER.

[2] = oral, 680 mg of elemental strontium per day; cited from earlier work
[3] = system: burning pain due to 1% lactic acid; assay: Burning pain from 1% lactic acid instilled on the conjunctiva of the eye; type: in vivo; details: 1% lactic acid on the conjunctiva, pilot studies in humans
[4] = system: histamine-induced itching; details: topical; cited from earlier work
[5] = system: TCN activation by highly acidic chemical peels; details: topically applied, 70% glycolic acid, pH 0.6 on the skin, previous studies; cited from earlier work
CICR pathway = details: cited from earlier work
Type C nociceptors = assay: Substance P release by Type C nociceptors, unpublished animal studies; type: in vivo
Text: As mentioned above, acid from the stomach activates many pathways that trigger pain and inflammation such as the release of substance P, neurokinin A, and CGRP. […] While the precise molecular mechanism by which strontium inhibits substance P release is unknown, it is believed that the release of substance P, neurokinin A and CGRP occur together and by the same or similar trigger mechanism.

synaptotagmin-1 = details: strontium substitutes for calcium; cited from earlier work
[6] = system: TCN activation by highly acidic chemical peels; assay: Burning pain from 70% glycolic acid, pH 0.6, applied to the skin; type: in vivo, human; details: strontium mixed with 70% glycolic acid
Protocol: Nociceptors also have a CaSR that inhibits nociceptor activation when the extracellular concentration of calcium is raised above normal, or if a similar concentration of strontium is administered. […] When strontium is mixed with the acid, burning pain and stinging is suppressed by 80% or more so that any remaining sensory irritation is not bothersome.

In the case of `O=C(O)C=Cc1ccccc1` [cinnamic acid], the ulcer-preventing properties (ulcer) is listed as “ulcer-preventing properties” and the H. pylori growth (Helicobacter pylori) is listed as “inhibition of H. pylori growth”.

In the case of `O=C(O)c1cc(O)c(O)c(O)c1` [gallic acid, 3,4,5-trihydroxybenzoic acid], the ulcer-preventing properties (ulcer) is given as “ulcer-preventing properties”, the acid induced pain (acid-induced pain) is given as “effective in reducing or preventing the acid induced pain” and the “block of KCa 3.1” value (KCa 3.1) is given as “does not block”. For the same compound, the cell proliferation (cancer cell lines) was “significant inhibition of cell proliferation”, the H. pylori growth (Helicobacter pylori) was “inhibition of H. pylori growth” and the apoptosis [1] was “induced apoptosis”.

In the case of `[Cl-].[Cl-].[Sr+2]` [strontium chloride solution, strontium chloride], the “pain of sore throat” value (pain of sore throat) is reported as “greatly relieved, if not eliminated”.

For `N#Cc1c(N(CC(=O)[O-])CC(=O)[O-])sc(C(=O)[O-])c1CC(=O)[O-].[Sr+2].[Sr+2]` [strontium ranelate], the “fraction absorbed by the GI tract into the blood” value [2] is given as “approximately 25%”.

For `[Sr+2]` [strontium], the burning pain [3] is listed as “inhibit burning pain”, the injected histamine-induced itching [4] is listed as “significantly inhibited” and the intense burning pain [5] is listed as “virtually abolish”. The “ability to induce CICR relative to calcium” value (CICR pathway) was “over a hundred-fold less active than calcium”, the “concentration in the ER relative to calcium” value (CICR pathway; greater than calcium) was “more than 150%” and the “fraction absorbed by the GI tract into the blood” value [2] was “approximately 25%”. The “substance P release” value (Type C nociceptors) was “inhibit substance P release”, the “reduction of amplitude of synchronous neurotransmitter release” value (synaptotagmin-1) was over 90% and the “suppression of burning pain and stinging” value [6] was at least 80%.
